Test [1] addresses T1, HIV-1 protease (Human immunodeficiency virus type 1 group M subtype B, UniProt P04585). The test is described as follows: biochemical. Particulars: for inhibition at 1 µM: read-out: HIV-1 Protease % Inhib, dose 1.000 uM; for inhibition at 10 µM: read-out: HIV-1 Protease % Inhib, dose 10.000 uM; for inhibition at 100 µM: read-out: HIV-1 Protease % Inhib, dose 100.000 uM; for inhibition at 0.123 µM: read-out: HIV-1 Protease % Inhib, dose 0.123 uM; for inhibition at 0.37 µM: read-out: HIV-1 Protease % Inhib, dose 0.370 uM; for inhibition at 1.1 µM: read-out: HIV-1 Protease % Inhib, dose 1.100 uM; for inhibition at 3.3 µM: read-out: HIV-1 Protease % Inhib, dose 3.300 uM; for inhibition at 30 µM: read-out: HIV-1 Protease % Inhib, dose 30.000 uM. The gist of the method: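 Biotinylated, FITC-labeled peptide substrate (20 μl of 0.2 μM) incubated with HIV-1 protease (10 μl of 0.1 μM) and compound in 0.1 M sodium acetate pH 5.5, 1.0 M NaCl, 0.05% NP-40, 1 h, room temperature, dark. Streptavidin beads then capture uncleaved substrate; filtered labeled product read by fluorescence, giving percent inhibition.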

Test [2] concerns the target T1, HIV-1 protease. The test is described as follows: biochemical. The gist of the method: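 Ki from two-fold serial inhibitor dilutions (24–48 concentrations) with 40 nM HIV-1 protease stock and 200 μM substrate stock, 90 min at room temperature; stopped with avidin beads. Reference inhibitor run in parallel; Ki by nonlinear least-squares fit.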

The structures appear in SMILES notation. Several values for one entry are separate records, joined by “and”; a condition that tells them apart may be missing. Equal entries are not always repeated. Where two headings read alike, the source gives them in different places.

Turning to `CCC(c1cccc(C(=O)NC(C(=O)NCc2ccccn2)C(C)CC)c1)c1c(O)c2ccccc2oc1=O` (stereo not shown) [Example 149, 3-(1-(4-Hydroxy-2-oxo-2H-chromen-3-yl)-propyl)-N-(2-methyl-1-(pyridin-2-ylmethylcarbomoyl)-butyl)-benzamide], at HIV-1 protease [1], the inhibition at 1 µM was found to be 28.8%, the inhibition at 10 µM was determined as 99.2% and the inhibition at 100 µM amounted to 97.3%. The same molecule came in with a Ki at HIV-1 protease [2] (HIV-1 FITC KI) of 0.405 µM.
Regarding `COCCC1CCCCCc2c1oc(=O)c(C(c1ccccc1)C1CC1)c2O` (stereo not shown) [Example 178, 3-(Cyclopropylphenylmethyl)-5,6,7,8,9,10-hexahydro-4-hydroxy-10-(2-methoxyethyl)-2H-cycloocta[b]pyran-2-one], at HIV-1 protease [1], the inhibition at 0.123 µM came to 16.2%, the inhibition at 0.37 µM stood at 45.5%, the inhibition at 1.1 µM turned out to be 86.4% and the inhibition at 3.3 µM came out at 98.8%. On HIV-1 protease [1], the inhibition at 10 µM was found to be 105% and the inhibition at 30 µM worked out at 103%. Moreover, on HIV-1 protease [2] (read-out: HIV-1 FITC KI), the Ki was 0.027 µM.
For the molecule `O=c1oc2c(c(O)c1C(c1cccc(NS(=O)(=O)c3cccc(S(=O)(=O)N4CCOCC4)c3)c1)C1CC1)CCCCCC2` (stereo not shown) [Example 411, N-[3-[Cyclopropyl(5,6,7,8,9,10-hexahydro-4-hydroxy-2-oxo-2H-cycloocta[b]pyran-3-yl)-methyl]phenyl]-(3-N-morpholinebenzenesulfonyl)benzenesulfonamide], at HIV-1 protease [1], the inhibition at 0.123 µM came to 71.1%, the inhibition at 0.37 µM is 79.4%, the inhibition at 1.1 µM was 98.5% and the inhibition at 3.3 µM was determined as 104%. In addition, on HIV-1 protease [1], the inhibition at 10 µM was 107% and the inhibition at 30 µM was 106%. In addition, on HIV-1 protease [2] (read-out: HIV-1 FITC KI), the Ki came to 0.0025 µM.
For the molecule `O=c1oc2c(c(O)c1C(c1cccc(NS(=O)(=O)c3ccc(OC(F)(F)F)cc3)c1)C1CC1)CCCCCC2` (stereo not shown) [Example 312, N-[3-[Cyclopropyl(5,6,7,8,9,10-hexahydro-4-hydroxy-2-oxo-2-cycloocta[b]pyran-3-yl)methyl]phenyl]-4-(trifluoromethoxy)-benzenesulfonamide], on HIV-1 protease [1], the inhibition at 0.123 µM is 48.2%, the inhibition at 0.37 µM turned out to be 83.6%, the inhibition at 1.1 µM worked out at 89.7% and the inhibition at 3.3 µM came to 106%. For the same molecule, on HIV-1 protease [1], the inhibition at 10 µM was found to be 114% and the inhibition at 30 µM worked out at 110%. Further, at HIV-1 protease [2] (read-out: HIV-1 FITC KI), the Ki was 0.004 µM.
Consider `Cc1nn(C)c(Cl)c1S(=O)(=O)Nc1cccc(C(c2c(O)c3c(oc2=O)CCCCCC3)C2CC2)c1` (stereo not shown) [Example 294, 5-Chloro-N-[3-[cyclopropyl(5,6,7,8,9,10-hexahydro-4-hydroxy-2-oxo-2H-cycloocta[b]pyran-3-yl)methyl]phenyl]-1,3-dimethyl-1H-pyrazole-4-sulfonamide], for which, on HIV-1 protease [1], the inhibition at 0.37 µM stood at 20.9%, the inhibition at 1.1 µM was determined as 52.9%, the inhibition at 3.3 µM came out at 81.1% and the inhibition at 10 µM stood at 94.7%. For the same molecule, the inhibition at 30 µM at HIV-1 protease [1] was 110%. Also, on HIV-1 protease [2] (read-out: HIV-1 FITC KI), the Ki was found to be 0.139 µM.
As to `CCC(c1ccccc1)c1c(O)c2c(oc1=O)C(Cc1ccccc1)CCCCC2` (stereo not shown) [Example 122], on HIV-1 protease [1] (read-out: HIV-1 Protease % Inhib, dose 0.410 uM), the inhibition at 0.41 µM was determined as 35.1%. On HIV-1 protease [1] (read-out: HIV-1 Protease % Inhib, dose 1.230 uM), the inhibition at 1.23 µM was determined as 63.5%. Also, the inhibition at 3.7 µM on HIV-1 protease [1] (read-out: HIV-1 Protease % Inhib, dose 3.700 uM) was determined as 91.7%. At HIV-1 protease [1] (read-out: HIV-1 Protease % Inhib, dose 11.000 uM), the inhibition at 11 µM came to 98%. The inhibition at 33 µM at HIV-1 protease [1] (read-out: HIV-1 Protease % Inhib, dose 33.000 uM) was determined as 93.2%. On HIV-1 protease [1], the inhibition at 100 µM turned out to be 94.3%. The Ki at HIV-1 protease [2] (read-out: HIV-1 FITC KI) worked out at 0.175 µM.
`O=C(COCc1ccccc1)Nc1cccc(S(=O)(=O)Nc2cccc(C(c3c(O)c4c(oc3=O)CCCCCC4)C3CC3)c2)c1` (stereo not shown) [Example 408, 3-(Benzyloxyacetylamino)-N-[3-[cyclopropyl(5,6,7,8,9,10-hexahydro-4-hydroxy-2-oxo-2H-cycloocta[b]pyran-3-yl)methyl]phenyl]-benzenesulfonamide]: at HIV-1 protease [1], the inhibition at 0.123 µM amounted to 38.4%, the inhibition at 0.37 µM is 70.1%, the inhibition at 1.1 µM came out at 88.9% and the inhibition at 3.3 µM was found to be 98.5%. Moreover, on HIV-1 protease [1], the inhibition at 10 µM came to 91.7% and the inhibition at 30 µM amounted to 107%. Moreover, at HIV-1 protease [2] (read-out: HIV-1 FITC KI), the Ki was found to be 0.014 µM.
As for `CCC1CCCCc2c1oc(=O)c(C(c1ccccc1)C1CC1)c2O` (stereo not shown) [Example 185, 3-(Cyclopropylphenylmethyl)-9-ethyl-6,7,8,9-tetrahydro-4-hydroxy-cyclohepta[b]pyran-2(5H)-one], at HIV-1 protease [1], the inhibition at 0.123 µM is 18.7%, the inhibition at 0.37 µM came to 40.3%, the inhibition at 1.1 µM amounted to 71.5% and the inhibition at 3.3 µM amounted to 92.6%. In addition, on HIV-1 protease [1], the inhibition at 10 µM was 97.6% and the inhibition at 30 µM is 91.8%. The Ki on HIV-1 protease [2] (read-out: HIV-1 FITC KI) was 0.022 µM.
As to `COc1cccc(Br)c1S(=O)(=O)Nc1cccc(C(c2c(O)c3c(oc2=O)CCCCCC3)C2CC2)c1` (stereo not shown) [Example 337, 2-Bromo-N-[3-[cyclopropyl(5,6,7,8,9,10-hexahydro-4-hydroxy-2-oxo-2H-cycloocta[b]pyran-3-yl)methyl]phenyl]-6-methoxy-benzenesulfonamide], on HIV-1 protease [1], the inhibition at 0.123 µM stood at 10.1%, the inhibition at 0.37 µM came to 47.9%, the inhibition at 1.1 µM was 93.6% and the inhibition at 3.3 µM is 116%. On HIV-1 protease [1], the inhibition at 10 µM came out at 111% and the inhibition at 30 µM was 112%. The Ki on HIV-1 protease [2] (read-out: HIV-1 FITC KI) is 0.0379 µM.
For `O=c1oc2c(c(O)c1C(c1cccc(NS(=O)(=O)c3cccc(N(CCO)CCO)c3)c1)C1CC1)CCCCCC2` (stereo not shown) [Example 355 (Second Title Compound), N-[3-[Cyclopropyl(5,6,7,8,9,10-hexahydro-4-hydroxy-2-oxo-2H-cycloocta[b]pyran-3-yl)methyl]phenyl]-3-[(bis-(2-ethanol))amino]-benzenesulfonamide], at HIV-1 protease [1], the inhibition at 0.123 µM stood at 112%, the inhibition at 0.37 µM was determined as 111%, the inhibition at 1.1 µM was found to be 107% and the inhibition at 3.3 µM was 110%. Further, on HIV-1 protease [1], the inhibition at 10 µM was 110% and the inhibition at 30 µM was 108%. For the same molecule, the Ki on HIV-1 protease [2] (read-out: HIV-1 FITC KI) was found to be 0.00106 µM.
As for `Cn1cnc(S(=O)(=O)Nc2cccc([C@@H](c3c(O)c4c(oc3=O)CCCCCC4)C3CC3)c2)c1` [Example 254, (-)-N-[3-[Cyclopropyl(5,6,7,8,9,10-hexahydro-4-hydroxy-2-oxo-2H-cycloocta[b]pyran-3-yl)methyl]phenyl]-1-methyl-1H-imidazole-4-sulfonamide], the “HIV-1 Protease % Inhib” value was found to be 82.28% at HIV-1 protease [1] (dose 0.123 uM); 97.98% at HIV-1 protease [1] (dose 0.370 uM); 107.75% on HIV-1 protease [1] (dose 1.100 uM); 111.05% on HIV-1 protease [1] (dose 3.300 uM); 112.1% on HIV-1 protease [1] (dose 10.000 uM); 103.1% at HIV-1 protease [1] (dose 30.000 uM). Also, the Ki on HIV-1 protease [2] (read-out: HIV-1 FITC KI) was determined as 0.00065 µM.
For `C=CS(=O)(=O)Nc1cccc(C(CC)c2c(O)c3ccccc3oc2=O)c1` (stereo not shown) [Example 137, Ethenesulfonic acid (3-(1-(4-hydroxy-2-oxo-2H-chromen-3-yl)-propyl)-phenyl)-amide], at HIV-1 protease [1], the inhibition at 1 µM is 11.3%, the inhibition at 10 µM came out at 62.9% and the inhibition at 100 µM was found to be 89.1%. Moreover, the Ki at HIV-1 protease [2] (HIV-1 FITC KI) is 1.75 µM and 2.2 µM.
`Cc1sc(C(c2c(O)c3c(oc2=O)CCCCCC3)C2CC2)cc1CO` (stereo not shown) [Example 394]: on HIV-1 protease [1], the inhibition at 0.123 µM worked out at 72.7%, the inhibition at 0.37 µM stood at 102%, the inhibition at 1.1 µM was 109% and the inhibition at 3.3 µM was 115%. At HIV-1 protease [1], the inhibition at 10 µM turned out to be 120% and the inhibition at 30 µM was 123%. Moreover, the Ki on HIV-1 protease [2] (read-out: HIV-1 FITC KI) came out at 0.00604 µM.
Turning to `CCC(c1cccc(NS(=O)(=O)CCN2C(=O)c3ccccc3C2=O)c1)c1c(O)c2ccccc2oc1=O` (stereo not shown) [Example 139, 2-(1,3-Dioxo-1,3-dihydro-isoindol-2-yl)-ethanesulfonic acid(3-(1-(4-hydroxy-2-oxo-2H-chromen-3-yl)-propyl)-phenyl)amide], at HIV-1 protease [1], the inhibition at 1 µM came out at 36.6%, the inhibition at 10 µM is 80.7% and the inhibition at 100 µM turned out to be 99.2%. The same molecule yielded a Ki at HIV-1 protease [2] (HIV-1 FITC KI) of 0.5 µM.
In the case of `O=C(NCc1ccc(C(c2c(O)c3c(oc2=O)CCCCCC3)C2CC2)o1)OCc1ccccc1` (stereo not drawn) [Example 388, 3-(α-Cyclopropyl (5-(N-carbobenzoxy)aminomethyl)furfur-2-yl)-4-hydroxy-5,6,7,8,9,10-hexahydrocycloocta[b]pyran-2-one], on HIV-1 protease [1], the inhibition at 0.37 µM was 42.8%, the inhibition at 1.1 µM is 76%, the inhibition at 3.3 µM was 96.5% and the inhibition at 10 µM was 98.2%. In addition, the inhibition at 30 µM at HIV-1 protease [1] amounted to 93.7%. The Ki on HIV-1 protease [2] (read-out: HIV-1 FITC KI) worked out at 0.0217 µM.
`O=C(Nc1cccc(C(c2c(O)c3c(oc2=O)CCCCCC3)C2CC2)c1)c1ccccc1` (stereo not shown) [Example 211, Benzamide, N-[3-[cyclopropyl(5,6,7,8,9,10-hexahydro-4-hydroxy-2-oxo-2H-cycloocta[b]pyran-3-yl)methyl]phenyl]]: on HIV-1 protease [1], the inhibition at 0.37 µM was 37.2%, the inhibition at 1.1 µM is 64.5%, the inhibition at 3.3 µM came to 89.6% and the inhibition at 10 µM was determined as 101%. Moreover, the inhibition at 30 µM on HIV-1 protease [1] was 101%. The Ki at HIV-1 protease [2] (read-out: HIV-1 FITC KI) turned out to be 0.042 µM.

The record behind these values is patent publication US5686486A, “4-hydroxy-benzopyran-2-ones and 4-hydroxy-cycloalkyl[b]pyran-2-ones useful to treat retroviral infections” (priority 1995, dated 1997).
